# Data: paper PMC4302236, “Functional profile of a novel modulator of serotonin, dopamine, and glutamate neurotransmission” (Psychopharmacology, 2014)
# Like-named read-outs stand apart in the source and are kept apart here.
# Legend:
# [1] = molecular target: T1, human recombinant D2-short receptor (Homo sapiens, UniProt P14416); experiment: Blockade of dopamine-induced inhibition of forskolin-stimulated cAMP accumulation in CHO cells; type: cell-based; conditions: forskolin 10 μM, read-out: IC50, blocking dopamine inhibition of forskolin-stimulated cAMP accumulation
# T1 construct: expressed in transfected cells; host or cells: CHO
# T1 sequence (P14416 1-414 isoform P14416-2): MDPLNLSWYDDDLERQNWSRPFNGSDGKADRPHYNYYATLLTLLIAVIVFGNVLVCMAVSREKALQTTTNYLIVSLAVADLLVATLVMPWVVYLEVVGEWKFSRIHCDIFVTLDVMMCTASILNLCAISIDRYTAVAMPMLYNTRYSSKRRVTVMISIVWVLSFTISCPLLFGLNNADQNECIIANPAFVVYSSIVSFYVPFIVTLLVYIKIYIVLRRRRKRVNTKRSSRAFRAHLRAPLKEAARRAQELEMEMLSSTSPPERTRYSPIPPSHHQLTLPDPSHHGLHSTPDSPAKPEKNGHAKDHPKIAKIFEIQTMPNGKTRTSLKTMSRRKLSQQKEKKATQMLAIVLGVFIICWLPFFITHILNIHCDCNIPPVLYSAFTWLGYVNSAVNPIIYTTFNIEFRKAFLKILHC
# [2] = test system: T2, Adrenergic, 1β; experiment: NovaScreen broad selectivity panel at 100 nM, Adrenergic 1β; conditions: average of replicate tubes, read-out: % Inhibition of binding at 100 nM concentration, Adrenergic 1β
# T2 construct: tissue NovaScreen/Caliper/Perkin-Elmer; host or cells: rat liver (inferred)
# T2 sequence (P15823 whole entry): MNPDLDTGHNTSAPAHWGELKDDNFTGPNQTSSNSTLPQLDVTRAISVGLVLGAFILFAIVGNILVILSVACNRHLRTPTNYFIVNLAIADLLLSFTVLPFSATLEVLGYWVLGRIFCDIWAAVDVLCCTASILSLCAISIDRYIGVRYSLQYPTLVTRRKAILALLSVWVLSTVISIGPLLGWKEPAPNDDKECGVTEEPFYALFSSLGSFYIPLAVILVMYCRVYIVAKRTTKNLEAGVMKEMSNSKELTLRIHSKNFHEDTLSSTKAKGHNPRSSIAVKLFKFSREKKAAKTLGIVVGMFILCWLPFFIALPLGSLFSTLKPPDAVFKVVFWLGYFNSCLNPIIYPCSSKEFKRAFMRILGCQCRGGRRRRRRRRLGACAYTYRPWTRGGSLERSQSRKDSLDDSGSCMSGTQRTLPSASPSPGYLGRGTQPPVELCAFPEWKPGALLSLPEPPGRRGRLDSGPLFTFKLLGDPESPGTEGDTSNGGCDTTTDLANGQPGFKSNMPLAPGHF
# [3] = test system: panel of 66 receptors, ion channels, and enzymes; experiment: NovaScreen broad selectivity panel at 100 nM, whole panel; type: binding
# [4] = test system: serine 40 (S40)-phosphorylated tyrosine hydroxylase; experiment: Striatal tyrosine hydroxylase S40 phosphorylation state (CNSProfile immunoblotting); type: in vivo; conditions: mice, acute; ITI-007 3 mg/kg p.o., clozapine 5 i.p., aripiprazole 10 p.o., olanzapine 1 i.p., risperidone 3 p.o., haloperidol 1 i.p.; over 60 min; vs vehicle
# Experimental: The effect of the selected compounds on the phosphorylation state of tyrosine hydroxylase (TH) was measured and quantitated as an indicator of the potential of each compound to perturb presynaptic dopamine synthesis in striatum. […] This technique preserves in vivo levels of brain protein phosphorylation ([Zhu et al. 2010]). […] Small aliquots of the homogenate were retained for protein determination by the bicinchoninic acid (BCA) protein assay method (Pierce Chemical Co., Rockford, IL). […] Immunoblotting was carried out using a phos-phorylation state-specific polyclonal antibody raised against […] (S40)-phosphorylated tyrosine hydroxylase (Chemicon, Temecula, CA) and a pan-TH monoclonal antibody for measuring the total protein levels (BD Biosciences, San Jose, CA). […] Antibody binding was detected and quantitated using a LiCor Odyssey infrared fluorescent detection system. Phosphorylation at each site detected by phospho-specific antibodies was quantified, normalized to total levels of the protein (non-phosphorylated), and expressed as percent±SEM of the level of phosphorylation in vehicle-treated control mice (N=6).
# [5] = test system: striatal dopamine metabolism; experiment: Striatal dopamine metabolism (HPLC-EC of DA, DOPAC, HVA); type: in vivo, mice; conditions: for DOPAC/DA, chronic (21 day) dosing, mean / HVA/DA, chronic (21 day) dosing, mean: striatum 2 h after last dose; for DOPAC/DA, acute (2 h) dosing, mean / HVA/DA, acute (2 h) dosing, mean: striatum 2 h after dose
# Experimental: Measurements of tissue dopamine levels were performed at CDC-NIOSH. […] Striatum was rapidly dissected from each mouse brain, weighed, and placed into Eppendorf tubes that were frozen in liquid nitrogen and stored at -80 °C. […] Tissues were homogenized in 100 μl of ice-cold 0.2 M perchloric acid containing 1 μM dihydroxybenzylamine (DHBA) as an internal standard and centrifuged at 10,000×g for 10 min at 4 °C. The supernatant was filtered through a 0.2 μm nitrocellulose membrane, and an aliquot (10 μl) was injected from a temperature-controlled (4 °C) automatic sample injector (Waters 717plus Autosampler) connected to a Waters 515 HPLC pump. Catecholamines were separated on a C18 reverse-phase column ([…]; Waters […] 25 cm×4.6 mm; 5 μm), electrochemically detected (Waters 464 Pulsed Electrochemical Detector; range 10 nA, potential +0.7 V), and analyzed using Millennium software. […] A flow rate of 1 ml/min was used. […] The recovery of each analyte was adjusted with respect to the internal standard and quantified from a standard curve. The levels of dopamine and its metabolites, DOPAC and HVA, were calculated from the AUC values for each (based on microgram per gram (μg/g) tissue wet weight) and expressed as a percent of the saline control.
# [6] = test system: extracellular dopamine; experiment: In vivo microdialysis of dopamine and DOPAC in striatum and prefrontal cortex; conditions: rats
# Experimental: On the day of the experiment (24–48 h after surgery), the microdialysis probes of each animal were connected via the use of flexible PEEK tubing to a microperfusion pump (Harvard Apparatus, PHD 2000 Holliston, MA). Artificial CSF, composed of 147 mM NaCl, 3 mM KCl, 1.2 mM CaCl2, and 1.2 mM MgCl2 was used to perfuse the probes (1.5 μl/min) beginning at 75 min prior to drug treatment. Baseline dialysate collection was begun for all rats 60 min prior to drug administration (t=−60 min) such that a total of […] were collected prior to drug treatment (t=0). […] A control group of rats (N=9) received only the 0.5 % methylcellulose vehicle solution, delivered orally (p.o.). All drug solutions were delivered in a volume of 1 ml/kg of body weight. Every 20 min for the following 3 h, dialysate was collected from both brain regions of each rat. Dialysates were collected into mini-vials containing 7.5 μl of 0.02 M formic acid using an automated fraction collector Univentor 820, Malta. Tubes containing dialysate samples were then frozen at −80 °C until analyzed by HPLC for levels of dopamine and the dopamine metabolite, DOPAC. […] Coronal sections were prepared of each rat brain to verify the position of the dialysis collection probes. Dopamine and DOPAC concentrations were determined in each sample using HPLC separation and electrochemical detection. An aliquot (20 μl) of each dialysate sample was injected onto the HPLC column by means of a refrigerated microsampler system, consisting of a syringe pump (Gilson, model 402), a multi-column injector (Gilson, model 233 XL), and a temperature regulator (Gilson, model 832). The chromatographic separation was performed on a reverse-phase 150 ×2.1 mm (3 μm) C18 Thermo BDS Hypersil column (Keystone Scientific). […] The mobile phase was run at a flow rate of 0.35 ml/min using an HPLC pump (Shimadzu, model LC-10AD vp). Dopamine and DOPAC were electrochemically detected using a potentiostat (Antec Leyden, model Intro) fitted with a glassy carbon electrode set a +500 mV versus Ag/AgCl (Antec, Leyden). Data were analyzed using Chromatography Data System software (Shimadzu, Class-VP, Japan) using an external standard method to quantify concentrations of dopamine and DOPAC. […] Drug effects were expressed as percentages of basal level (mean±SEM) within the same subject. Statistical analysis was performed using Sigmastat for Windows (SPSS Corporation). Drug effects were compared with baseline and vehicle control using a two-way ANOVA for repeated measurements followed by the Newman–Keuls post hoc test. […] For all tests, the level of statistical significance was set at p<0.05.
# [7] = test system: phospho-serine (S) 9 GSK-3β; conditions: mouse, in vivo; for Phospho-S9 GSK-3β, PFC / Phospho-S9 GSK-3β, accumbens / Phospho-S9 GSK-3β, striatum: po
# Experimental: Each brain was rapidly removed from the skull. Nucleus accumbens, striatum, and prefrontal cortex were dissected free-hand, frozen in liquid nitrogen, and stored at −80 °C until analyzed for phosphoprotein levels. […] Levels of phospho-GSK-3β were normalized for total levels of GSK-3β and expressed as a percent of phosphoprotein levels in the vehicle-injected controls.
# [8] = 1 mg/kg p.o. once daily 21 days
# [9] = 3 mg/kg p.o. once daily 21 days
# [10] = 10 mg/kg p.o. once daily 21 days
structure (smiles),measurement,setting,value
"CN1CCN2c3c(cccc31)[C@@H]1CN(CCCC(=O)c3ccc(F)cc3)CC[C@@H]12 [ITI-007, 1-(4-fluoro-phenyl)-4-((6bR,10aS)-3-methyl-2,3,6b,9,10,10a-hexahydro-1H,7H-pyrido[3′,4′:4,5]pyrrolo[1,2,3-de]quinoxalin-8-yl)-butan-1-one]",IC50,[1],338 nM
same,inhibition at 0.1 µM,[2],85.4%
same,Binding to the other targets of the panel,"[3]; 100 nM, custom panel of 66 receptors, ion channels, and enzymes",did not bind significantly
same,Ki,"[3]; read-out: projected Ki values (>50 % binding inhibition), single concentration 100 nM, at the 5-HT2A, D1, D2, D4, alpha1A and alpha1B receptors, and at SERT",≤ 100 nM
same,Effect on TH phosphorylation at S40 in striatum,[4],no significant effect
same,"DOPAC/DA, chronic (21 day) dosing, mean",[5]; [8],4.69
same,"HVA/DA, chronic (21 day) dosing, mean",[5]; [8],9.44
same,"DOPAC/DA, acute (2 h) dosing, mean",[5]; 1 mg/kg p.o. once,4.98
same,"HVA/DA, acute (2 h) dosing, mean",[5]; 1 mg/kg p.o. once,8.06
same,"DOPAC/DA, chronic (21 day) dosing, mean",[5]; [9],4.54
same,"HVA/DA, chronic (21 day) dosing, mean",[5]; [9],7.99
same,"DOPAC/DA, acute (2 h) dosing, mean",[5]; 3 mg/kg p.o. once,4.57
same,"HVA/DA, acute (2 h) dosing, mean",[5]; 3 mg/kg p.o. once,7.47
same,"DOPAC/DA, chronic (21 day) dosing, mean",[5]; [10],5.80
same,"HVA/DA, chronic (21 day) dosing, mean",[5]; [10],10.47
same,"DOPAC/DA, acute (2 h) dosing, mean",[5]; 10 mg/kg p.o. once,6.02
same,"HVA/DA, acute (2 h) dosing, mean",[5]; 10 mg/kg p.o. once,8.40
same,DA efflux in mPFC,"[6]; 3 mg/kg p.o., p<0.05",significantly increased
same,DA efflux in mPFC,"[6]; 10 mg/kg p.o., trend toward an increase",not statistically significant
same,Effect on S9 GSK-3β phosphorylation in striatum at any dose tested,[7],no significant effect
same,"Phospho-S9 GSK-3β, PFC",[7]; 3 mg/kg,103.4±3.1 % vehicle control
same,"Phospho-S9 GSK-3β, accumbens",[7]; 3 mg/kg,122.9±8.6 % vehicle control
same,"Phospho-S9 GSK-3β, striatum",[7]; 3 mg/kg,106.6±2.1 % vehicle control
same,"Phospho-S9 GSK-3β, striatum",[7]; 10 mg/kg,98.2±5.1 % vehicle control
same,"Phospho-S9 GSK-3β, PFC",[7]; 30 mg/kg,112.1±2.7 % vehicle control
same,"Phospho-S9 GSK-3β, accumbens",[7]; 30 mg/kg,105.5±2.2 % vehicle control
same,"Phospho-S9 GSK-3β, striatum",[7]; 30 mg/kg,108.0±2.9 % vehicle control
